System: hippocampal slices from wt and Δ9 mutant (PS-1) animals
Format: cell-based

Compound | difference in potentiation between wt and Δ9 mutation slices post-tetanus | AP5-sensitive potentials during tetanus, difference between wt and Δ9 mutant slices
CN1C(=O)CN=C(c2ccccc2F)c2cc([N+](=O)[O-])ccc21 [flunitrazepam] | no statistically significant difference between the two groups | –
AP5 | – | no statistically significant difference between the two groups
